Assay [1] has as its target T1, human 5-HT1A receptor (Homo sapiens, UniProt P08908).
T1 construct: expressed in transfected cells; host or cells: CHO cells (stably transfected)
T1 sequence (P08908 1-422): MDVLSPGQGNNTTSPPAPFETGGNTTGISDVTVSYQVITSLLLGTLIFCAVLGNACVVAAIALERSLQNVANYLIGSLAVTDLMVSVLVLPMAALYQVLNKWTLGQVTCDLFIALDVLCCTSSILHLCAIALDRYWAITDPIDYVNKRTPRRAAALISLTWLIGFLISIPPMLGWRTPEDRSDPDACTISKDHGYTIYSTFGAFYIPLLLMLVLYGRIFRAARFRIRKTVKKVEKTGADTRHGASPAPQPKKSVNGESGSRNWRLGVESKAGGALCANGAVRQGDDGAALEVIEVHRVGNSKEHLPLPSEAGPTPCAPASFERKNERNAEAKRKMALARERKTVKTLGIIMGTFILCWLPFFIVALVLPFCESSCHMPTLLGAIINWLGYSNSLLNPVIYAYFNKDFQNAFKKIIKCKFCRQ
Nature of the assay: 5-HT1A affinity: displacement of [3H] 8-OHDPAT. The conditions noted are these: CHO cells stably transfected with the human 5-HT1A receptor. The assay is classed as binding. From the text: Affinity for the serotonin 5-HT1A receptor was established by assaying the test compound's ability to displace [^3H] 8-OHDPAT from its binding site on the receptor complex in CHO cells stably transfected with the human 5-HT1A receptor following the procedure described by J. Dunlop, Y. Zhang, D. Smith and L. Schechter (Eur. J. Pharmacol., submitted; variation of a procedure described by J. Zgombick et al., Naunyn-Schmiedeberg's Arch. Pharmacol., 354, 226–236 (1996)).

The target of assay [2] is T1, human 5-HT1A receptor. Nature of the assay: Agonist activity: reversal of forskolin stimulation of cAMP. Conditions: reversal of forskolin-stimulated cAMP; CHO cells stably transfected with the human 5-HT1A receptor; RIA. The assay is classed as cell-based. The method, then:
EC50 values are determined for the active test compounds. Stably transfected CHO cells were grown in DMEM containing 10% heat inactivated FBS and non-essential amino acids. The cells are plated at a density of […] per well in a 24 well plate and incubated for 2 days in a CO2 incubator. On the second day, the media is replaced with 0.5 mL treatment buffer (DMEM+25 mM HEPES, 5 mM theophylline, 10 mM pargyline) and incubated for 10 minutes at 37° C. Wells are treated with forskolin ([…]) followed immediately by the test compound ([…] for initial screen) and incubated for an additional 10 minutes at 37° C. The reaction is terminated by removal of the media and addition of 0.5 mL ice cold assay buffer (supplied in the RIA kit). Plates are stored at −20° C. prior to assessment of cAMP formation by RIA.

Consider one compound from US7067518B2, “Pyridinyl-methyl-ethyl cyclohexanecarboxamides as serotonergic agents” (Wyeth, priority 2002, dated 2006).

SMILES strings stand for the structures.

Regarding `CC1(C(=O)N[C@H](Cc2ccncc2)CN2CCN(c3cccc4c3OCCO4)CC2)CCCCC1` [Example 23, 1-Methyl-cyclohexanecarboxylic acid {(1R)-2-[4-(2,3-dihydro-benzo[1,4]dioxin-5-yl)-piperazin-1-yl]-1-pyridin-4-ylmethyl-ethyl}-amide], the IC50 (usually the midpoint of a concentration-inhibition curve) on human 5-HT1A receptor [1] is 0.00113 µM. Further, the EC50 – broadly, the concentration giving half of the maximal effect – on human 5-HT1A receptor [2] came to 0.108 µM.
